Test system: breast cancer patients
Experiment: Patient response in breast cancer tissue microarray cohort: chemotherapy together with HERCEPTIN®, response from case histories at last follow-up
Format: in vivo, human
Conditions: treatment following surgery (followed by Herceptin ®)
Description: Immunohistochemistry for detecting and measuring predictive biomarker expression, activation or both was performed as follows. HER2/neu, EGFR, HER3, IGFR, TGF-α, Heregulin (NDF), p-ERK, p-AKT, and p-S6 ribosomal protein or phosphorylation levels were quantified using alkaline phosphatase or peroxidase techniques and microscope-based image analysis of immunohistochemically stained slides (as described in Bacus et al., 1997, Analyt. Quant. Cytol. Histol. 19: 316-328). Quantification was by means of a CAS 200 image analyzer, as previously described (Bacus & Ruby, 1993, Pathol Annu, 28: 179-204). For the purpose of the analysis, tumors were classified as negative or positive for each antibody based upon the level of staining. Statistical analysis was performed using Systat to quantify frequencies and calculate Pearson Chi-squared tests of significance for interactions between variables. In all cases, the p value refers to the significance of the deviation of the distribution of samples from what would be expected based upon the overall population distribution. Comparisons were performed only on samples for which all relevant data were available. […] All patients had received post-surgical radiotherapy. The tissue samples in the array were taken before treatment. HER2/neu expression had been determined by using the […] system (DAKO, Carpinteria, Calif.) on the original biopsies for all patients. Patient response was based upon the case histories at last follow-up as decided by an independent pathologist provided by Clinomics.

Structure (SMILES) | disease-free or stable disease | relapse
COc1cccc2c1C(=O)c1c(O)c3c(c(O)c1C2=O)C[C@@](O)(C(=O)CO)C[C@@H]3O[C@H]1C[C@H](N)[C@H](O)[C@H](C)O1 [Doxorubicin] | 2% | 98%
CC(=O)O[C@H]1C(=O)[C@@]2(C)[C@H]([C@H](OC(=O)c3ccccc3)[C@]3(O)C[C@H](OC(=O)[C@H](O)[C@@H](NC(=O)c4ccccc4)c4ccccc4)C(C)=C1C3(C)C)[C@]1(OC(C)=O)CO[C@@H]1C[C@@H]2O [Paclitaxel] | 100% | 0%

Reference: patent US9239331B2, “Method for predicting the response to HER2-directed therapy” (Ventana Medical Systems, Inc., priority 2002, dated 2016)
